# Counter-ions that a name gives are not always drawn.
# Biological target: T1, human EP4 (hEP4) receptor (Homo sapiens, UniProt P35408)
# T1 construct: expressed in transfected cells; host or cells: HEK-293 T cells, transient co-transfection with polyethylenimine
# Assay: In vitro human EP4 functional antagonist activity using BRET biosensors (cAMP EPAC biosensor, TCS2510 stimulation)
# Format: cell-based
# Settings: antagonist activity vs EC60 TCS2510, hEP4 in HEK-293 T cells
# Procedure, shortened: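 HEK-293T cells transiently co-transfected with hEP4 and EPAC cAMP BRET biosensor (luciferase/GFP), assayed 48 h later in HEPES-buffered saline after 1 h at 22 °C. After 5 min with compound, cells stimulated with EC60 TCS2510 and BRET read for 10 min; IC50 from 10-point, 4.5-log variable-slope fits, duplicate, two experiments.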
# T1 sequence (P35408 whole entry): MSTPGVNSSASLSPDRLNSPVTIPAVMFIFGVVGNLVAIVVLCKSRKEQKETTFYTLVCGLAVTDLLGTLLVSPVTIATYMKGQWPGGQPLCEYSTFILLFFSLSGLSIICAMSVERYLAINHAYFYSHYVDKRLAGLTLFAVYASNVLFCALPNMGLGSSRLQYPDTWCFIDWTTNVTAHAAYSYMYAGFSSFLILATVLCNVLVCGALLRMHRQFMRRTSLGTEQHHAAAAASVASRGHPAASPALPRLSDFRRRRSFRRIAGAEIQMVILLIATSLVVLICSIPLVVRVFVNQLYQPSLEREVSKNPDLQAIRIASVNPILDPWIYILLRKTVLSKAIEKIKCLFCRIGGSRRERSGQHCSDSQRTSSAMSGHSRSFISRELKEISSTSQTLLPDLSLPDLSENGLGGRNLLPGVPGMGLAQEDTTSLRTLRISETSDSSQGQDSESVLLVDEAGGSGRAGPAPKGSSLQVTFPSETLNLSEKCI
row,IC50 [nM],SMILES
1,< 100,"C[C@H](NC(=O)C1(N2CC[C@@H](Oc3cccc(C(F)(F)F)c3)C2)CCC1)c1ccc(C(=O)O)cc1 [Example 165, 4-[(1S)-1-[[1-[(3R)-3-[3-(Trifluoromethyl)phenoxy]pyrrolidin-1-yl]cyclobutane-1-carbonyl]amino]ethyl]benzoic acid, hydrochloride]"
2,< 100,"C[C@H](NC(=O)C1(N2CC[C@@H](Oc3cccc(C(F)(F)F)c3)C2)CCOCC1)c1ccc(C#N)cc1 [Example 182, N—((S)-1-(4-Cyanophenyl)ethyl)-4-((R)-3-(3-(trifluoromethyl)phenoxy)pyrrolidin-1-yl)tetrahydro-2H-pyran-4-carboxamide, hydrochloride]"
3,< 1000,"C[C@H](NC(=O)C1(N2CC[C@@H](Oc3cccc(C(F)(F)F)c3)C2)CCOCC1)c1ccc(Br)cc1 [Example 190, N—((S)-1-(4-Bromophenyl)ethyl)-4-((R)-3-(3-(trifluoromethyl)phenoxy)pyrrolidin-1-yl)tetrahydro-2H-pyran-4-carboxamide, hydrochloride]"
4,< 1000,"C[C@H](NC(=O)C1(c2cccc(OCC3CCCC3)c2)CCOCC1)c1ccc(C(=O)O)cc1 [Example 102, 4-[(1S)-1-[[4-[3-(Cyclopentylmethoxy)phenyl]tetrahydropyran-4-carbonyl]amino]ethyl]benzoic acid]"
5,< 100,"COc1cccc(O[C@@H]2CCN(C3(C(=O)NC4(c5ccc(C(=O)O)cc5)CC4)CCOCC3)C2)c1 [Example 149, 4-[1-[[4-[(3R)-3-(3-Methoxyphenoxy)pyrrolidin-1-yl]tetrahydropyran-4-carbonyl]amino]cyclopropyl]benzoic acid, hydrochloride]"
6,< 100,"Cc1cc(C2(NC(=O)C3(N4CC[C@@H](Oc5cccc(C(F)(F)F)c5)C4)CCOCC3)CC2)ccc1C(=O)O [Example 198, (R)-2-Methyl-4-(1-(4-(3-(3-(trifluoromethyl)phenoxy)pyrrolidin-1-yl)tetrahydro-2H-pyran-4-carboxamido)cyclopropyl)benzoic acid, hydrochloride]"
7,< 100,"C[C@H](NC(=O)C1(N2CC[C@@H](Oc3cccc(C(F)(F)F)c3)C2)CCOCC1)c1ccc(-c2ccn[nH]2)cc1 [Example 177, N—((S)-1-(4-(1H-Pyrazol-5-yl)phenyl)ethyl)-4-((R)-3-(3-(trifluoromethyl)phenoxy)pyrrolidin-1-yl)tetrahydro-2H-pyran-4-carboxamide, hydrochloride]"
8,< 100,"C[C@H](NC(=O)C1(c2cccc(OCC3CCCCC3)c2)CCCC1)c1ccc(C(=O)O)cc1 [Example 112, 4-[(1S)-1-[[1-[3-(Cyclohexylmethoxy)phenyl]cyclopentanecarbonyl]amino]ethyl]benzoic acid]"
9,< 1000,"C[C@H](NC(=O)C1(N2CC[C@@H](Oc3cccc(C(F)(F)F)c3)C2)CCOCC1)c1ccncc1 [Example 184, N—((S)-1-(Pyridin-4-yl)ethyl)-4-((R)-3-(3-(trifluoromethyl)phenoxy)pyrrolidin-1-yl)tetrahydro-2H-pyran-4-carboxamide, hydrochloride]"
10,< 1000,"C[C@H](NC(=O)C1(N2CC[C@@H](Oc3cccc(C(F)(F)F)c3)C2)CCOCC1)c1ccccc1 [Example 183, N—((S)-1-Phenylethyl)-4-((R)-3-(3-(trifluoromethyl)phenoxy)pyrrolidin-1-yl)tetrahydro-2H-pyran-4-carboxamide, hydrochloride]"
11,< 1000,"C[C@H](NC(=O)C1(c2ccc(OCCC3CCCCC3)cn2)CCCC1)c1ccc(C(=O)O)cc1 [Example 128, 4-[(1S)-1-[[1-[5-(2-Cyclohexylethoxy)-2-pyridyl]cyclopentanecarbonyl]amino]ethyl]benzoic acid]"
12,< 100,"C[C@H](NC(=O)C1(N2CC[C@@H](Oc3cccc(C(F)(F)F)c3)C2)CCOCC1)c1ccc(-c2nn[nH]n2)cc1 [Example 175, N—((S)-1-(4-(2H-Tetrazol-5-yl)phenyl)ethyl)-4-((R)-3-(3-(trifluoromethyl)phenoxy)pyrrolidin-1-yl)tetrahydro-2H-pyran-4-carboxamide, hydrochloride]"
13,< 1000,"C[C@H](NC(=O)C1(c2ccc(OCc3ccccc3)cc2)CCOCC1)c1ccc(C(=O)O)cc1 [Example 88, 4-[(1S)-1-[[4-(4-Benzyloxyphenyl)tetrahydropyran-4-carbonyl]amino]ethyl]benzoic acid]"
14,< 1000,"C[C@H](NC(=O)C1(N2CC[C@@H](Oc3cccc(C(F)(F)F)c3)C2)CCOCC1)c1ccc(O)cc1 [Example 181, N—((S)-1-(4-Hydroxyphenyl)ethyl)-4-((R)-3-(3-(trifluoromethyl)phenoxy)pyrrolidin-1-yl)tetrahydro-2H-pyran-4-carboxamide, hydrochloride]"
15,< 1000,"C[C@H](NC(=O)C1(N2CC[C@H](Oc3cccc(Cl)c3)C2)CCOCC1)c1ccc(C(=O)O)cc1 [Example 138, 4-[(1S)-1-[[4-[(3S)-3-(3-Chlorophenoxy)pyrrolidin-1-yl]tetrahydropyran-4-carbonyl]amino]ethyl]benzoic acid, hydrochloride]"
16,< 100,"C[C@H](NC(=O)C1(N2CC[C@@H](Oc3cccc(Cl)c3)C2)CCOCC1)c1ccc(C(=O)O)cc1 [Example 140, 4-[(1S)-1-[[4-[(3R)-3-(3-Chlorophenoxy)pyrrolidin-1-yl]tetrahydropyran-4-carbonyl]amino]ethyl]benzoic acid, hydrochloride]"
17,< 1000,"COc1ccccc1[C@H](C)NC(=O)C1(N2CC[C@@H](Oc3cccc(C(F)(F)F)c3)C2)CCOCC1 [Example 197, N—((S)-1-(2-Methoxyphenyl)ethyl)-4-((R)-3-(3-(trifluoromethyl)phenoxy)pyrrolidin-1-yl)tetrahydro-2H-pyran-4-carboxamide, hydrochloride]"
18,< 100,"C[C@H](NC(=O)C1(N2CC[C@@H](Oc3cccc(C(F)(F)F)c3)C2)CCOCC1)c1ccc(C(N)=O)cc1 [Example 168, 4-[(1S)-1-[[4-[(3R)-3-[3-(Trifluoromethyl)phenoxy]pyrrolidin-1-yl]tetrahydropyran-4-carbonyl]amino]ethyl]benzamide, hydrochloride]"

# The remaining lines, values behind:
row,SMILES,IC50 [nM]
1,"CN(CCOc1cccc(Cl)c1)C1(C(=O)NC2(c3ccc(C(=O)O)cc3)CC2)CCOCC1 [Example 29, 4-[1-[[4-[2-(3-Chlorophenoxy)ethyl-methyl-amino]tetrahydropyran-4-carbonyl]amino]cyclopropyl]benzoic acid, hydrochloride]",< 100
2,"O=C(O)c1ccc(C2(NC(=O)C3(NCCOc4ccccc4)CCOCC3)CC2)cc1 [Example 24, 4-[1-[[4-(2-Phenoxyethylamino)tetrahydropyran-4-carbonyl]amino]cyclopropyl]benzoic acid, hydrochloride]",< 1000
3,"Cc1cccc(OCCNC2(C(=O)N[C@@H](C)c3ccc(C(=O)O)cc3)CCOCC2)c1 [Example 14, 4-[(1S)-1-[[4-[2-(3-Methylphenoxy)ethylamino]tetrahydropyran-4-carbonyl]amino]ethyl]benzoic acid, hydrochloride]",< 100
4,"CN(CCOc1ccccc1)C1(C(=O)NC2(c3ccc(C(=O)O)c(F)c3)CC2)CCOCC1 [Example 49, 2-Fluoro-4-[1-[[4-[methyl(2-phenoxyethyl)amino]tetrahydropyran-4-carbonyl]amino]cyclopropyl]benzoic acid, hydrochloride]",< 1000
5,"C[C@H](NC(=O)C1(NCCOc2ccccc2)CCCCC1)c1ccc(C(=O)O)cc1 [Example 55, 4-[(1S)-1-[[1-(2-Phenoxyethylamino)cyclohexanecarbonyl]amino]ethyl]benzoic acid, hydrochloride]",< 1000
6,"C[C@H](NC(=O)C1(N(C)CCOc2cccc(Cl)c2)CCOC1)c1ccc(C(=O)O)cc1 (stereo partly drawn) [Example 75, 4-[(1S)-1-[[3-[2-(3-Chlorophenoxy)ethyl-methyl-amino]tetrahydrofuran-3-carbonyl]amino]ethyl]benzoic acid, hydrochloride]",< 100
7,"C[C@H](NC(=O)C1(NCCOc2ccccc2)CCCC1)c1ccc(C(=O)O)cc1 [Example 61, 4-[(1S)-1-[[1-(2-Phenoxyethylamino)cyclopentanecarbonyl]amino]ethyl]benzoic acid, hydrochloride]",< 100
8,"CN(CCOc1cccc(C(F)(F)F)c1)C1(C(=O)NC2(c3ccc(C(=O)O)cc3)CC2)CCOCC1 [Example 41, 4-[1-[[4-[2-(3-Trifluoromethylphenoxy)ethyl-methyl-amino]tetrahydropyran-4-carbonyl]amino]cyclopropyl]benzoic acid, hydrochloride]",< 100
9,"CN(CCOc1ccccc1)C1(C(=O)NC2(c3ccc(C(=O)O)cn3)CC2)CCOCC1 [Example 54, 6-[1-[[4-[Methyl(2-phenoxyethyl)amino]tetrahydropyran-4-carbonyl]amino]cyclopropyl]pyridine-3-carboxylic acid, hydrochloride]",< 1000
10,"CCCC(C)COc1ccc(C2(C(=O)N[C@@H](C)c3ccc(C(=O)O)cc3)CCOCC2)cc1 (stereo partly drawn) [Example 84, 4-[(1S)-1-[[4-[4-(2-Methylpentoxy)phenyl]tetrahydropyran-4-carbonyl]amino]ethyl]benzoic acid]",< 1000
11,"C[C@H](NC(=O)C1(NCCOc2cccc(Cl)c2)CCCC1)C12CC(C(=O)O)(C1)C2 [Example 64, 3-[(1S)-1-[[1-[2-(3-Chlorophenoxy)ethylamino]cyclopentanecarbonyl]amino]ethyl]bicyclo[1.1.1]pentane-1-carboxylic acid, hydrochloride]",< 1000
12,"C[C@H](NC(=O)C1(NCCOc2ccc(Cl)c(Cl)c2)CCOCC1)c1ccc(C(=O)O)cc1 [Example 17, 4-[(1S)-1-[[4-[2-(3,4-Dichlorophenoxy)ethylamino]tetrahydropyran-4-carbonyl]amino]ethyl]benzoic acid, hydrochloride]",< 1000
